# Assays:
# [1] = tested on: Klebsiella pneumoniae; experiment: Antimicrobial activity against Klebsiella pneumoniae assessed as diameter of inhibition zone at 1 mg/ml incubated for 48 hrs by agar disk diffusion method; format: functional; details: read-out: DIZ
# [2] = tested on: Pseudomonas aeruginosa; experiment: Antimicrobial activity against Pseudomonas aeruginosa assessed as diameter of inhibition zone at 1 mg/ml incubated for 48 hrs by agar disk diffusion method; format: functional; details: read-out: DIZ
# [3] = tested on: Aspergillus niger; experiment: Antifungal activity against Aspergillus niger assessed as diameter of inhibition zone at 1 mg/ml incubated for 72 to 91 hrs by agar disk diffusion method; format: functional; details: time 72-91 hrs, read-out: DIZ
# [4] = tested on: Escherichia coli; experiment: Antimicrobial activity against Escherichia coli assessed as diameter of inhibition zone at 1 mg/ml incubated for 48 hrs by agar disk diffusion method; format: functional; details: read-out: DIZ
# [5] = tested on: Penicillium chrysogenum; experiment: Antifungal activity against Penicillium chrysogenum assessed as diameter of inhibition zone at 1 mg/ml incubated for 72 to 91 hrs by agar disk diffusion method; format: functional; details: time 72-91 hrs, read-out: DIZ
# [6] = tested on: Staphylococcus aureus; experiment: Antimicrobial activity against Staphylococcus aureus assessed as diameter of inhibition zone at 1 mg/ml incubated for 48 hrs by agar disk diffusion method; format: functional; details: read-out: DIZ
# [7] = tested on: Bacillus cereus; experiment: Antimicrobial activity against Bacillus cereus assessed as diameter of inhibition zone at 1 mg/ml incubated for 48 hrs by agar disk diffusion method; format: functional; details: read-out: DIZ
# [8] = target: T1, Free fatty acid receptor 3 (Homo sapiens, UniProt O14843); experiment: Agonist activity at FFA3 (unknown origin) expressed in human Flp-In-293 cells assessed as inhibition of forskolin-stimulated cAMP accumulation incubated for 30 mins by Lance cAMP assay; format: cell-based
# T1 sequence (O14843 whole entry): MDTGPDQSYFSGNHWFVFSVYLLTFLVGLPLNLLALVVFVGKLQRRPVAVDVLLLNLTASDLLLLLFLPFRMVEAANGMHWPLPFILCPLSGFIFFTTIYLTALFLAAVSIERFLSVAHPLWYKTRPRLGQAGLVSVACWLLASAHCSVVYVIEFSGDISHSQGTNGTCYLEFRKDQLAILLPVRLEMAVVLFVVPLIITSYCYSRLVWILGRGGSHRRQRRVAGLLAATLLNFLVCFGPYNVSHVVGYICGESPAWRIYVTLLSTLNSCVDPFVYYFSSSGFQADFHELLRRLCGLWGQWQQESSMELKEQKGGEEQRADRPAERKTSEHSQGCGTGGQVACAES
# [9] = target: Hydroxycarboxylic acid receptor 2 (Homo sapiens, UniProt Q8TDS4); experiment: Agonist activity at human HCA2 expressed in human Flp-In-293 cells assessed as inhibition of forskolin-stimulated cAMP accumulation incubated for 30 mins by Lance cAMP assay; format: cell-based
# Hydroxycarboxylic acid receptor 2, sequence (Q8TDS4 whole entry): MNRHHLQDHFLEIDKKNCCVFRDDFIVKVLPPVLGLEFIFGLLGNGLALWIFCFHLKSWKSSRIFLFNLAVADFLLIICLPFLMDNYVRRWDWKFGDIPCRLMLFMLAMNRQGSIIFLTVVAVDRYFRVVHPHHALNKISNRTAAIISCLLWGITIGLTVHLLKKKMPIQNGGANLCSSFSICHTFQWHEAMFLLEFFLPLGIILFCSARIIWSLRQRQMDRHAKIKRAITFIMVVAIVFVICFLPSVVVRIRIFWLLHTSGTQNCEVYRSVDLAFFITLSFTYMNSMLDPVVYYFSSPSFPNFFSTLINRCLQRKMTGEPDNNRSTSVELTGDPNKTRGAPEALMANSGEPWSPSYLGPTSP
# [10] = Inhibition of porcine pancreatic alpha-amylase preincubated for 10 mins followed by substrate starch addition and measured after 10 mins by colorimetric analysis; parameters: species or system Sus scrofa
# [11] = target: Alpha-glucosidase (Saccharomyces cerevisiae S288c, UniProt P53341+P38158+P07265); experiment: Inhibition of Saccharomyces cerevisiae alpha-glucosidase preincubated for 5 mins followed by PNP-GLUC substrate addition and measured after 20 mins by spectroscopic analysis; format: protein assay
# [12] = target: Albumin (Bos taurus, UniProt P02769); experiment: […] bovine serum albumin denaturation incubated for 23 mins by UV-Visible spectrophotometry
# Albumin, sequence (P02769 whole entry, the tested form may be a part): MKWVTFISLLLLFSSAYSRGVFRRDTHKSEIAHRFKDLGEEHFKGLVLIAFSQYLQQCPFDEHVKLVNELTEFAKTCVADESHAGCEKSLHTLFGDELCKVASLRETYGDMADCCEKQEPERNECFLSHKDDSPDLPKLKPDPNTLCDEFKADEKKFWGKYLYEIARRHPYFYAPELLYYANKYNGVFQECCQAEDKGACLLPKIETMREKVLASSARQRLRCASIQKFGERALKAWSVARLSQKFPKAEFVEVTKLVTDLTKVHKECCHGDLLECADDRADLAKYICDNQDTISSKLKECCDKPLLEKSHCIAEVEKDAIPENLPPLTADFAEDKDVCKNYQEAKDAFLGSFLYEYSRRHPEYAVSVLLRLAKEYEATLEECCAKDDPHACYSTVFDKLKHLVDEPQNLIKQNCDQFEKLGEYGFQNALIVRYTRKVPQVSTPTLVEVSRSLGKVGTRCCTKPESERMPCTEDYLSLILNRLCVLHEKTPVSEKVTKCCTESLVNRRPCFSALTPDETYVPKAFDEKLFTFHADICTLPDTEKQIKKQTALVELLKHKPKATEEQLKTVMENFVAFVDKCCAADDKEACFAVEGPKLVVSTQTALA
# [13] = tested on: Escherichia coli; experiment: Antibacterial activity against Escherichia coli MTCC 723 assessed as diameter of inhibition zone at 0.1 mg/ml incubated for 24 hrs by agar well diffusion method; format: functional; details: read-out: DIZ
# [14] = tested on: Staphylococcus aureus; experiment: Antibacterial activity against Staphylococcus aureus MTCC 96 assessed as bacterial growth inhibition incubated for 24 hrs by broth microdilution method; format: functional
# [15] = tested on: A549; experiment: Anticancer activity against human A549 cells assessed as reduction in cell viability incubated for 24 hrs by MTT assay; format: functional, cell-based; details: A549, 24 h
# [16] = tested on: Staphylococcus aureus; experiment: Antibacterial activity against Staphylococcus aureus MLS-16 MTCC 2940 assessed as bacterial growth inhibition incubated for 24 hrs by broth microdilution method; format: functional
# [17] = tested on: Plasmodium falciparum; experiment: microbe, parasite or virus in culture
# [18] = tested on: Staphylococcus aureus; experiment: Antibacterial activity against Staphylococcus aureus NCIM 2654 assessed as diameter of inhibition zone incubated for 24 hrs by agar well diffusion method; format: functional
# [19] = Antioxidant activity assessed as DPPH radical scavenging activity at 12 ug incubated for 30 mins by spectrophotometric analysis; format: functional; details: dose 12.0 µg
# [20] = tested on: Candida albicans; experiment: Antifungal activity against Candida albicans assessed as diameter of inhibition zone incubated for 48 hrs by agar well diffusion method; format: functional
# [21] = tested on: Klebsiella pneumoniae; experiment: Antibacterial activity against Klebsiella pneumoniae assessed as bacterial growth inhibition by broth microdilution method; format: functional
# [22] = tested on: Candida albicans; experiment: Antifungal activity against Candida albicans assessed as fungal growth inhibition by broth microdilution method; format: functional
# [23] = tested on: Pseudomonas aeruginosa; experiment: Antibacterial activity against Pseudomonas aeruginosa assessed as bacterial growth inhibition by broth microdilution method; format: functional
# [24] = tested on: Escherichia coli; experiment: Antibacterial activity against Escherichia coli assessed as bacterial growth inhibition by broth microdilution method; format: functional
# [25] = tested on: Staphylococcus aureus; experiment: Antibacterial activity against Staphylococcus aureus assessed as bacterial growth inhibition by broth microdilution method; format: functional
# [26] = tested on: Aspergillus flavus; experiment: Antifungal activity against Aspergillus flavus assessed as fungal growth inhibition by broth microdilution method; format: functional
compound,measurement,setting,value
COC(=O)C1=C(N)Oc2[nH]c(=S)[nH]c(=O)c2C1c1ccc(O)cc1 (stereo unspecified),zone of inhibition at 1000 µg/mL,[1],22 mm
same,zone of inhibition at 1000 µg/mL,[2],18 mm
same,zone of inhibition at 1000 µg/mL,[3],23 mm
same,zone of inhibition at 1000 µg/mL,[4],21 mm
same,zone of inhibition at 1000 µg/mL,[5],23 mm
same,zone of inhibition at 1000 µg/mL,[6],21 mm
same,zone of inhibition at 1000 µg/mL,[7],18 mm
COC(=O)C1=C(N)Oc2[nH]c(=S)[nH]c(=O)c2C1c1ccc(OC)c(OC)c1 (stereo unspecified),zone of inhibition at 1000 µg/mL,[1],14 mm
same,zone of inhibition at 1000 µg/mL,[2],12 mm
same,zone of inhibition at 1000 µg/mL,[3],0 mm
same,zone of inhibition at 1000 µg/mL,[4],16 mm
same,zone of inhibition at 1000 µg/mL,[5],12 mm
same,zone of inhibition at 1000 µg/mL,[6],13 mm
same,zone of inhibition at 1000 µg/mL,[7],15 mm
CCCc1cc(=O)oc2[nH]c(=S)[nH]c(=O)c12,EC50,[8],0.22 µM
same,EC50,[9],0.051 µM
O=C(C1=C(c2ccccc2O)Oc2[nH]c(=S)[nH]c(=O)c2C1c1ccccc1)N1CCCCC1 (stereo unspecified),IC50,[10],22.1 µM
same,IC50,[11],7745 µM
same,IC50,[12],19.9 µM
same,zone of inhibition at 100 µg/mL,[13],13.1 mm
Cc1cc2c(c(=O)o1)C(c1ccc(F)cc1)c1c(Nc3ccccc3)ncnc1O2 (stereo unspecified),MIC,[14],7.8 µg/mL
CCOC(=O)C1=C(C)Oc2nc(C)n(Cc3cn(-c4ccc(C(C)=O)cc4)nn3)c(=O)c2C1c1ccccc1 (stereo unspecified),IC50,[15],6.74 µM
COC(=O)C1=C(N)Oc2[nH]c(=S)[nH]c(=O)c2C1c1ccccc1Cl (stereo unspecified),zone of inhibition at 1000 µg/mL,[2],4 mm
same,zone of inhibition at 1000 µg/mL,[3],0 mm
same,zone of inhibition at 1000 µg/mL,[4],9 mm
same,zone of inhibition at 1000 µg/mL,[5],0 mm
same,zone of inhibition at 1000 µg/mL,[6],11 mm
Cc1cc2c(c(=O)o1)C(c1ccccc1)c1c(Nc3ccccc3)ncnc1O2 (stereo unspecified),MIC,[16],15.6 µg/mL
CCCCc1cc(=O)oc2[nH]c(=O)[nH]c(=O)c12,EC50,[8],0.22 µM
C=C[C@H]1CN2CC[C@H]1C[C@H]2[C@H](O)c1ccnc2ccc(OC)cc12 [QUININE],IC50,[17],0.268 µg/mL
O=c1[nH]c(=O)c2c(CCCCCl)cc(=O)oc2[nH]1,EC50,[9],0.051 µM
COc1ccc(C2c3c(Nc4ccccc4)ncnc3Oc3cc(C)oc(=O)c32)cc1 (stereo unspecified),MIC,[14],7.8 µg/mL
Cc1n[nH]c2c1C(c1ccc(Cl)cc1)c1c([nH]c(=O)[nH]c1=O)O2 (stereo unspecified),diameter of the inhibition zone (DIZ),[18],27 mm
same,Activity,[19],58.8%
same,diameter of the inhibition zone (DIZ),[20],18 mm
Cc1n[nH]c2c1C(c1ccc([N+](=O)[O-])cc1)c1c([nH]c(=O)[nH]c1=O)O2 (stereo unspecified),diameter of the inhibition zone (DIZ),[18],20 mm
same,Activity,[19],98.4%
same,diameter of the inhibition zone (DIZ),[20],12 mm
C1=COc2ncncc2C1,zone of inhibition at 100 µg/mL,[13],13.1 mm
CCc1cc(=O)oc2[nH]c(=S)[nH]c(=O)c12,EC50,[8],0.22 µM
same,EC50,[9],0.051 µM
Cc1cc2c(c(=O)o1)C(c1ccccc1)c1c(Nc3cccc([N+](=O)[O-])c3)ncnc1O2 (stereo unspecified),MIC,[16],15.6 µg/mL
same,MIC,[14],7.8 µg/mL
CCO/C=N/C1=C(C#N)C(c2ccc(F)cc2)c2c(n(C)c(=O)n(C)c2=O)O1 (stereo unspecified),MIC,[21],6.25 µg/mL
same,MIC,[22],3.12 µg/mL
same,MIC,[23],6.25 µg/mL
same,MIC,[24],6.25 µg/mL
same,MIC,[25],6.25 µg/mL
same,MIC,[26],3.12 µg/mL
OC(Cn1cncn1)(Cn1cncn1)c1ccc(F)cc1F [FLUCONAZOLE],MIC,[22],1.56 µg/mL
same,MIC,[26],1.56 µg/mL

# From ChEMBL document CHEMBL5241112, “Insights into the recent progress in the medicinal chemistry of pyranopyrimidine analogs” (RSC Med Chem, 2022)
